# Laboratory results as given in ChEMBL document CHEMBL1121764, “Synthesis of some novel amodiaquine analogues as potential antimalarial and antifilarial compounds” (J Med Chem, 1981).
# Assays:
# breinlia booliati [1] = test: Time taken for In vitro anti-filarial activity to immobilize breinlia booliati (Microfilaria); type: functional
# breinlia booliati [2] = test: Time taken for In vitro anti-filarial activity to immobilize breinlia booliati (adult worms); type: functional
# Mus musculus [3] = species on record: Mus musculus; test: Minimum effective dose which on 5th day reduced the mean infection level to one-fiftieth of the control; No activity observed at a dose range of 0.05-2.0 mg (HCl) per 20 g
# Mus musculus [4] = species on record: Mus musculus; test: Lethal dose that killed mice in 48 hr; type: toxicity, organism-based; details: in vivo
# Mus musculus [5] = species on record: Mus musculus; test: Minimum effective dose which on 5th day reduced the mean infection level to one-fiftieth of the control; type: functional
# [6] = Ratio of activity of quinine versus compound against Plasmodium berghei in mice; type: functional
SMILES,TIME (breinlia booliati [1]),TIME (breinlia booliati [2]),MED (Mus musculus [3]),LD app (Mus musculus [4]),MED (Mus musculus [5]),Ratio [6]
CCN(CC)C(=O)N(CC)Cc1cc(Nc2ccnc3cc(Cl)ccc23)ccc1O,8 h,8 h,No activity,–,–,–
CCN(CC)C(=O)N1CCN(C)CC1 [DIETHYLCARBAMAZINE],4 h,2 h,–,1.34 mM/kg,–,–
COc1ccc(Nc2ccnc3cc(Cl)ccc23)cc1CNC(=O)N1CCN(C)CC1,7 h,5 h,–,0.68 mM/kg,0.43 (mg of base) 20g-1,2.8
CCN(CC)C(=O)N(CC)Cc1cc(Nc2ccnc3cc(Cl)ccc23)ccc1OC,8 h,8 h,No activity,–,–,–
CCN(CC)C(=O)N1CCN(Cc2cc(Nc3ccnc4cc(Cl)ccc34)ccc2O)CC1,6 h,3 h,–,0.37 mM/kg,0.43 (mg of base) 20g-1,2.8
CCN(Cc1cc(Nc2ccnc3cc(Cl)ccc23)ccc1O)C(=O)N1CCN(C)CC1,3 h,3 h,–,0.76 mM/kg,0.21 (mg of base) 20g-1,5.8
CN1CCN(C(=O)NCc2cc(Nc3ccnc4cc(Cl)ccc34)ccc2O)CC1,7 h,5 h,–,0.66 mM/kg,0.043 (mg of base) 20g-1,28.4
CCN(CC)C(=O)NCc1cc(Nc2ccnc3cc(Cl)ccc23)ccc1O,8 h,8 h,No activity,–,–,–
CCN(CC)Cc1cc(Nc2ccnc3cc(Cl)ccc23)ccc1O.Cl,3 h,3 h,–,0.32 mM/kg,0.077 (mg of base) 20g-1,15.8
CCN(CC)C(=O)N1CCN(Cc2cc(Nc3ccnc4cc(Cl)ccc34)ccc2OC)CC1,6 h,3 h,–,0.41 mM/kg,0.43 (mg of base) 20g-1,2.8
CCN(CC)C(=O)NCc1cc(Nc2ccnc3cc(Cl)ccc23)ccc1OC,8 h,8 h,No activity,–,–,–
CCN(Cc1cc(Nc2ccnc3cc(Cl)ccc23)ccc1OC)C(=O)N1CCN(C)CC1,3 h,3 h,–,0.63 mM/kg,0.43 (mg of base) 20g-1,2.8
